For one experiment, the system named is HL60/VINC. As to the kind of experiment: reversal of drug resistance to Adriamycin, in vitro cytotoxicity assay (3H-leucine incorporation). The experiment is classed as cell-based, human. The note with it: change in IC50 of Adriamycin; test compound at maximum noncytotoxic concentration (Conc. µM column: 12, 4). The source says: (§1) The cells used to analyze the reversal of drug resistance are the human leukemia cell lines HL60/s, HL60/Vinc, and HL60/ADR. HL60/s cells are not selected for drug resistance and are therefore sensitive to drug treatment (McGrath, et al., "Mechanisms of Multidrug Resistance in HL60 Cells. Analysis of Resistance Associated Membrane Proteins and Levels of MDR Gene Expression, Biochemical Pharmacology, 38: 3611-3619, 1989.). HL60/Vinc tumor cells are selected for resistance to vincristine and express a high level of the multidrug resistance-related protein, P-glycoProtein. Id. HL60/ADR cells are selected for resistance to Adriamycin but contain no detectable levels of P-glycoProtein. Id.
(§2) The in vitro cytotoxicity assays are performed by suspending the target cells into Minimum Essential Eagle's Medium (MEM) containing 25% of the normal leucine concentration and 10% dialyzed fetal calf serum. 2x10^4 cells are seeded into each well of 96 well microtiter plates and are incubated overnight in 5% CO2 at 37°C. The agents to be tested for reversal activity are serially diluted (100 µM, 50 µM, ..., 0.2 µM) in media and added to the cells. 48 hours after adding the reversal agents to the target cells, 4 µCi of ^3H-leucine are added to each well and are incubated for an additional 16 hours at 37°C. The cells are harvested and the amount of ^3H-leucine incorporation is determined. The concentration of reversal agent required for 50% inhibition of ^3H-leucine incorporation (IC50) is calculated. Subsequent studies using reversal agents in the presence of cytotoxic drug (i.e., Adriamycin) utilize maximal concentrations of reversal agents that are not cytotoxic by themselves. The reversal of drug resistance by the various test compounds is accomplished by adding the maximum noncytotoxic concentration of the test compounds to log dilutions of Adriamycin (10, 1, 0.1, ... 0.001 µg/ml) and calculating the change in IC50 observed for Adriamycin against the HL60/s, HL60/Vinc, and HL60/ADR cell lines in the above described in vitro cytotoxicity assay.

The next experiment deals with HL60/ADR. The experiment is described as above. Format: cell-based, human. The note with it: change in IC50 of Adriamycin; test compound at maximum noncytotoxic concentration (Conc. µM: 12, 6, 3, 4).
Description: as §1, §2

The test system of the next experiment is HL60/Adr cells. As to the kind of experiment: cytotoxicity of oncolytic agents against HL60/Adr cells. The following applies: Homo sapiens. The experiment is classed as cell-based. The protocol:
as §2

The subject of a further experiment is HL60/S cells. As to the kind of experiment: cytotoxicity of oncolytic agents against HL60/S cells. Format: cell-based. The note with it: Homo sapiens, HL-60; HL60/S cells (drug sensitive, no P-glycoProtein). The protocol: as §2

The record followed here is patent EP0652004B1, “Methods for treating resistant neoplasms” (ELI LILLY AND COMPANY, priority 1993, dated 1995).

In brackets after ≈: the same amount, converted by molar mass. Where two headings read alike, the source gives them in different places.

As for `CC/C(=C(\c1ccccc1)c1ccc(OCCN(C)C)cc1)c1ccccc1` [Tamoxifen], the “Reversal Factor HL60/VINC” value with HL60/VINC is given as 4.6. Moreover, the “Reversal Factor HL60/ADR” value in the experiment on HL60/ADR is recorded as 1.4.
For orientation: IC50 means the point on the concentration scale where inhibition reaches its midpoint. For the compound `COc1cccc2c1C(=O)c1c(O)c3c(c(O)c1C2=O)C[C@@](O)(C(=O)CO)C[C@@H]3O[C@H]1C[C@H](N)[C@H](O)[C@H](C)O1` [Adriamycin, Doxorubicin], the IC50 with HL60/Adr cells (HL60/ADR) was 2.2 µg/mL (≈ 4.05 µM); with HL60/S cells it was 0.011 µg/mL (≈ 0.0202 µM).
`Cl.O=C(c1ccc(OCCN2CCCCC2)cc1)c1c(-c2ccc(O)cc2)sc2cc(O)ccc12` [Raloxifene HCL, raloxifene]: in the experiment with HL60/ADR, the “Reversal Factor HL60/ADR” value was determined as 7.1.
Regarding `C[C@]12CC[C@@H]3c4ccc(O)cc4CC[C@H]3[C@@H]1CC[C@@H]2O` [17∝ Estradiol], in the experiment with HL60/ADR, the “Reversal Factor HL60/ADR” value was found to be 1.
For `COc1cc([C@@H]2c3cc4c(cc3[C@@H](O[C@@H]3O[C@@H]5CO[C@@H](C)O[C@H]5[C@H](O)[C@H]3O)[C@H]3COC(=O)[C@H]23)OCO4)cc(OC)c1O` [Etoposide], the half-maximal inhibitory concentration (IC50) was more than 10 µg/mL in the experiment with HL60/Adr cells (HL60/Adr cells (resistant to doxorubicin, express P190), read-out: IC50) and 0.39 µg/mL (≈ 0.663 µM) with HL60/S cells.
